Data as given in paper PMC3974725, “A Random Sequential Mechanism of Aminoglycoside Acetylation by Mycobacterium tuberculosis Eis Protein” (PLoS ONE, 2014).
Where two headings read alike, the source gives them in different places.

Tests used:
MtEis [1] = target: T1, MtEis (Mycobacterium tuberculosis, UniProt P9WFK7); assay: Steady-state acetyltransferase assays (DTNB, absorbance at 412 nm), bisubstrate kinetic analysis; assay type: biochemical
MtEis [2] = target: T1, MtEis; details: cited from earlier work

T1 sequence (P9WFK7 whole entry, looked up): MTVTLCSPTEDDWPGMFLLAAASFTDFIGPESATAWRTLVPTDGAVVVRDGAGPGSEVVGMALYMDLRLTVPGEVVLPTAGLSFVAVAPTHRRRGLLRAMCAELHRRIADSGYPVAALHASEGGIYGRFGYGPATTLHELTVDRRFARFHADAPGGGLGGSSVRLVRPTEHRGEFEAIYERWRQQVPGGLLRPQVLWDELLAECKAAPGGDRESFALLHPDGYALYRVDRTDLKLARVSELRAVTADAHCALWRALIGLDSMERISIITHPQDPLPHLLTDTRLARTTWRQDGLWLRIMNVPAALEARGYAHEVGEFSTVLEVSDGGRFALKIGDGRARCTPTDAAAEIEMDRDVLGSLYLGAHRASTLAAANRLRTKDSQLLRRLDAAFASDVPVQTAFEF

| Compound | K d,AcCoA(E) lower than that for AcCoA binding to Eis from M. smegmatis (MtEis [1]; MtEis versus M. smegmatis Eis value of ref 6) | Kd (MtEis [1]; binding of AcCoA to free MtEis, read-out: K d,AcCoA(E)) | Kd (MtEis [1]; binding of AcCoA to the KAN bound enzyme, read-out: K d,AcCoA(AG•E)) | Kd (MtEis [1]; binding of AcCoA to the NEO bound enzyme, read-out: K d,AcCoA(AG•E)) | higher affinity for the AcCoA bound enzyme than KAN (MtEis [1]; NEO versus KAN, K d,AG(AcCoA•E)) | Kd (MtEis [1]; binding of AG to free enzyme, from thermodynamic cycle K d,AcCoA(E) K d,AG(AcCoA•E)/K d,AcCoA(AG•E), read-out: K d,AG(E)) | Kd (MtEis [1]; binding of AG to the AcCoA bound enzyme, simultaneous fit of KAN and NEO acetylation data, read-out: K d,AG(AcCoA•E)) | extent of acetylation by MtEis (MtEis [2]) | k cat (microscopic rate constant of the acetylation step) (MtEis [1]; AG as substrate of MtEis, random sequential mechanism fit, Tris 50 mM, pH 8.0) |
| --- | --- | --- | --- | --- | --- | --- | --- | --- | --- |
| CC(=O)SCCNC(=O)CCNC(=O)[C@H](O)C(C)(C)COP(=O)(O)OP(=O)(O)OC[C@H]1O[C@@H](n2cnc3c(N)ncnc32)[C@H](O)[C@@H]1OP(=O)(O)O [AcCoA, acetyl coenzyme A] | about 4 fold | 18 ± 14 µM | 45 ± 37 µM | 111 ± 62 µM |  |  |  |  |  |
| NC[C@@H]1O[C@H](O[C@H]2[C@@H](O)[C@H](O[C@@H]3[C@@H](O)[C@H](N)C[C@H](N)[C@H]3O[C@H]3O[C@H](CN)[C@@H](O)[C@H](O)[C@H]3N)O[C@@H]2CO)[C@H](N)[C@@H](O)[C@@H]1O [NEO, neomycin B] |  |  |  |  | approximately 3 fold | 22 ± 17 µM | 135 ± 53 µM | tri-acetylated |  |
| kanamycin A |  |  |  |  |  |  |  | di-acetylated | 0.68 ± 0.15 s⁻¹ |
